Common to all, as to experiment: relative viability (nuclei count vs DMSO), 5 days (fraction); higher = more cells survive
Compound in the assay “Imatinib + Palbociclib”: Cc1ccc(NC(=O)c2ccc(CN3CCN(C)CC3)cc2)cc1Nc1nccc(-c2cccnc2)n1 [Imatinib] + CC(=O)c1c(C)c2cnc(Nc3ccc(N4CCNCC4)cn3)nc2n(C2CCCC2)c1=O [Palbociclib] (partner 0.5 µM)
In a few lines: (§1)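 The day after seeding in 1536-well plates, lung cancer cell lines were treated by pin tool with a single drug, or with a fixed anchor-drug dose together with five library-drug doses (not always all listed) in √10 steps. After 5 days, a combined fix-and-stain solution (final 0.05% Triton X-100, 1% formaldehyde, 1 ug/ml Hoechst) was added. Nuclei counted on 4× images gave relative viability as treated counts over vehicle counts, reported as the median of duplicate plates.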

Compound in the assay “Imatinib + Navitoclax”: Cc1ccc(NC(=O)c2ccc(CN3CCN(C)CC3)cc2)cc1Nc1nccc(-c2cccnc2)n1 [Imatinib] + CC1(C)CCC(c2ccc(Cl)cc2)=C(CN2CCN(c3ccc(C(=O)NS(=O)(=O)c4ccc(N[C@H](CCN5CCOCC5)CSc5ccccc5)c(S(=O)(=O)C(F)(F)F)c4)cc3)CC2)C1 [Navitoclax] (partner 0.5 µM)
In a few lines: as §1

Compound in the assay “Imatinib + Linsitinib”: Cc1ccc(NC(=O)c2ccc(CN3CCN(C)CC3)cc2)cc1Nc1nccc(-c2cccnc2)n1 [Imatinib] + C[C@]1(O)C[C@@H](c2nc(-c3ccc4ccc(-c5ccccc5)nc4c3)c3c(N)nccn32)C1 [Linsitinib] (partner 1 µM)
The method in brief: as §1

Compound in the assay “Imatinib + Tozasertib”: Cc1ccc(NC(=O)c2ccc(CN3CCN(C)CC3)cc2)cc1Nc1nccc(-c2cccnc2)n1 [Imatinib] + Cc1cc(Nc2cc(N3CCN(C)CC3)nc(Sc3ccc(NC(=O)C4CC4)cc3)n2)n[nH]1 [Tozasertib] (partner 0.1 µM)
In a few lines:
as §1

Relative viability data for 4 cell lines are collected here from the supplement of paper PMC10307832.

As to RERF-LC-KJ, the relative viability in the assay with Imatinib + Palbociclib (first compound 0.02 µM) was determined as 1.11; in the assay with Imatinib + Palbociclib (first compound 0.06325 µM), 1.23; with Imatinib + Palbociclib (first compound 0.2 µM) it was 1.07; with Imatinib + Palbociclib (first compound 0.6325 µM) it was 0.981; with Imatinib + Palbociclib (first compound 2 µM) it was 1.09; with Imatinib + Navitoclax (first compound 0.02 µM), 1.09. Moreover, the relative viability with Imatinib + Navitoclax (first compound 0.06325 µM) was determined as 0.999; with Imatinib + Navitoclax (first compound 0.2 µM), 1; in the assay with Imatinib + Navitoclax (first compound 0.6325 µM) it was 0.83; in the assay with Imatinib + Navitoclax (first compound 2 µM), 0.954; in the assay with Imatinib + Linsitinib (first compound 0.02 µM), 0.879; with Imatinib + Linsitinib (first compound 0.06325 µM), 1.08. The relative viability was determined as 1.03 with Imatinib + Linsitinib (first compound 0.2 µM); 0.872 with Imatinib + Linsitinib (first compound 0.6325 µM); 0.94 in the assay with Imatinib + Linsitinib (first compound 2 µM); 0.527 with Imatinib + Tozasertib (first compound 0.02 µM); 0.498 in the assay with Imatinib + Tozasertib (first compound 0.06325 µM); 0.476 with Imatinib + Tozasertib (first compound 0.2 µM). Further, the relative viability with Imatinib + Tozasertib (first compound 0.6325 µM) came out at 0.389; with Imatinib + Tozasertib (first compound 2 µM), 0.305.

Regarding SK-LU-1, the relative viability came to 0.427 with Imatinib + Palbociclib (first compound 0.02 µM); 0.427 with Imatinib + Palbociclib (first compound 0.06325 µM); 0.418 with Imatinib + Palbociclib (first compound 0.2 µM); 0.34 in the assay with Imatinib + Palbociclib (first compound 0.6325 µM); 0.425 in the assay with Imatinib + Palbociclib (first compound 2 µM); 1.14 in the assay with Imatinib + Navitoclax (first compound 0.02 µM). Also, the relative viability in the assay with Imatinib + Navitoclax (first compound 0.2 µM) stood at 0.885; in the assay with Imatinib + Navitoclax (first compound 0.6325 µM) it was 0.861; in the assay with Imatinib + Navitoclax (first compound 2 µM), 1.01; with Imatinib + Linsitinib (first compound 0.02 µM) it was 1.58; in the assay with Imatinib + Linsitinib (first compound 0.06325 µM), 1.22; in the assay with Imatinib + Linsitinib (first compound 0.2 µM) it was 1.15. Also, the relative viability with Imatinib + Linsitinib (first compound 2 µM) worked out at 0.951; with Imatinib + Tozasertib (first compound 0.02 µM), 0.336; with Imatinib + Tozasertib (first compound 0.06325 µM), 0.322; in the assay with Imatinib + Tozasertib (first compound 0.2 µM), 0.316; with Imatinib + Tozasertib (first compound 0.6325 µM), 0.303; with Imatinib + Tozasertib (first compound 2 µM) it was 0.28.

As to SK-MES-1, the relative viability with Imatinib + Palbociclib (first compound 0.02 µM) turned out to be 0.318; with Imatinib + Palbociclib (first compound 0.06325 µM), 0.336; with Imatinib + Palbociclib (first compound 0.2 µM), 0.321; with Imatinib + Palbociclib (first compound 0.6325 µM), 0.316; with Imatinib + Palbociclib (first compound 2 µM), 0.294; with Imatinib + Navitoclax (first compound 0.02 µM), 1.41. Also, the relative viability with Imatinib + Navitoclax (first compound 0.06325 µM) amounted to 1.29; in the assay with Imatinib + Navitoclax (first compound 0.2 µM) it was 1.33; with Imatinib + Navitoclax (first compound 0.6325 µM) it was 1.37; with Imatinib + Navitoclax (first compound 2 µM) it was 1.44; with Imatinib + Linsitinib (first compound 0.02 µM) it was 1.07; with Imatinib + Linsitinib (first compound 0.06325 µM), 1.19. The relative viability turned out to be 1.23 with Imatinib + Linsitinib (first compound 0.2 µM); 1.06 with Imatinib + Linsitinib (first compound 0.6325 µM); 1.19 with Imatinib + Linsitinib (first compound 2 µM); 0.994 in the assay with Imatinib + Tozasertib (first compound 0.02 µM); 1.02 with Imatinib + Tozasertib (first compound 0.06325 µM); 1.13 with Imatinib + Tozasertib (first compound 0.2 µM). Further, the figures for the relative viability with Imatinib + Tozasertib (first compound 0.6325 µM) and with Imatinib + Tozasertib (first compound 2 µM) were 0.906 and 0.821, respectively.

For the cell line SW 1573, the relative viability is 0.404 in the assay with Imatinib + Palbociclib (first compound 0.02 µM); 0.435 with Imatinib + Palbociclib (first compound 0.06325 µM); 0.41 with Imatinib + Palbociclib (first compound 0.2 µM); 0.265 with Imatinib + Palbociclib (first compound 0.6325 µM); 0.405 with Imatinib + Palbociclib (first compound 2 µM); 1.12 with Imatinib + Navitoclax (first compound 0.02 µM). Further, the relative viability in the assay with Imatinib + Navitoclax (first compound 0.06325 µM) turned out to be 0.955; in the assay with Imatinib + Navitoclax (first compound 0.2 µM), 1.21; with Imatinib + Navitoclax (first compound 0.6325 µM) it was 1.06; with Imatinib + Navitoclax (first compound 2 µM), 1.1; with Imatinib + Linsitinib (first compound 0.02 µM) it was 0.879; with Imatinib + Linsitinib (first compound 0.06325 µM), 0.965. In addition, the relative viability was 0.799 with Imatinib + Linsitinib (first compound 0.2 µM); 0.685 with Imatinib + Linsitinib (first compound 0.6325 µM); 0.809 in the assay with Imatinib + Linsitinib (first compound 2 µM); 0.174 with Imatinib + Tozasertib (first compound 0.02 µM); 0.231 in the assay with Imatinib + Tozasertib (first compound 0.06325 µM); 0.202 with Imatinib + Tozasertib (first compound 0.2 µM). In addition, the relative viability came out at 0.131 with Imatinib + Tozasertib (first compound 0.6325 µM) and 0.175 with Imatinib + Tozasertib (first compound 2 µM).
